Assay results as given in ChEMBL document CHEMBL4651402, “Screening of ~5500 FDA-approved drugs and clinical candidates for anti-SARS-CoV-2 activity” (2021).
Bridge positions count the residues as written; N and C are the ends. Square brackets hold non-standard residues; d marks the D form. Peptide text beside a SMILES is read from it. * marks the point of attachment. Ileψ(thiazoline)Cys = CC[C@H](C)[C@H](N)C1=N[C@H](C(=O)*)CS1; dOrn = NCCC[C@@H](N)C(=O)O

Tested on: SARS-CoV-2
Experiment: microbe, parasite or virus in culture
Details: Severe acute respiratory syndrome coronavirus 2, Vero C1008, 48 h

SMILES | IC50 [µM] | IC50 (read-out: pIC50 (converted)) [µM]
C[C@@H](Nc1ncnc2[nH]c(-c3ccc(O)cc3)cc12)c1ccccc1 [PKI-166] | > 20 | > 20
CC12CCC(=O)C=C1CCC1C2C(=O)CC2(C)C1CCC2(O)C(=O)CO (stereo not given) | > 20 | > 20
CC1=C(CC(=O)O)c2cc(F)ccc2/C1=C\c1ccc(S(C)(=O)=O)cc1 [EXISULIND] | > 20 | > 20
CC[C@]12CCCN3CCc4c(n(c5ccccc45)C(=O)C1)[C@@H]32 [VINBURNINE] | > 20 | > 20
COc1ccc(O)cc1 [MEQUINOL] | > 20 | > 20
COc1ccc2c(c1)CC[C@@H](CN(C)CC(=O)O)[C@H]2c1ccccc1 | > 20 | > 20
NS(=O)(=O)Cc1noc2ccccc12 [ZONISAMIDE] | > 20 | > 20
NCCCC[C@H](OP(=O)(O)CCCCc1ccccc1)C(=O)N1CCC[C@H]1C(=O)O [CERONAPRIL] | > 20 | > 20
Cc1ncc(CO)c(C=O)c1O [PYRIDOXAL] | > 20 | > 20
OC(Cn1ccnc1)c1ccc(CCc2ccccc2)cc1 (stereo not given) [DENZIMOL] | > 20 | > 20
CC12CCC3C4CCC(O)CC4=CCC3C1CCC2O (stereo not given) | > 20 | > 20
CC(CN(C)C)CN1c2ccccc2CCc2ccccc21 (stereo not given) [TRIMIPRAMINE] | > 20 | > 20
CC(C)=CCOc1cc(NC(=S)c2ccoc2C)ccc1Cl [UC 781] | > 20 | > 20
O=S(=O)(c1cccc2cnccc12)N1CCCNCC1 [FASUDIL] | > 20 | > 20
COc1ccc(-c2nc(C(F)(F)F)sc2-c2ccc(OC)cc2)cc1 [ITAZIGREL] | > 20 | > 20
O=C(Nc1ccc([N+](=O)[O-])cc1Cl)c1cc(Cl)ccc1O [NICLOSAMIDE] | > 20 | > 20
CNC(C)CC1CCCC1 (stereo not given) [CYCLOPENTAMINE] | > 20 | > 20
Cc1c(C(C)C)c(=O)n(-c2ccccc2)n1C [PROPYPHENAZONE] | > 20 | > 20
Cc1ccccc1C(=O)Nc1ccc(C(=O)N2CCCC(O)c3cc(Cl)ccc32)c(C)c1 (stereo not given) [TOLVAPTAN] | > 20 | > 20
COc1ccc2c(c1)CN(C(=O)CCN1CCC(Cc3ccccc3)CC1)CCS2 | > 20 | > 20

SMILES | IC50 [µM] | IC50 (read-out: pIC50 (converted)) [µM]
COc1cc(NCCCC(C)N)c2ncccc2c1 (stereo not given) [QUINOCIDE] | > 20 | > 20
Cc1ccc2c(Cl)cc(Cl)c(O)c2n1 [CHLORQUINALDOL] | > 20 | > 20
Cc1ccc(Nc2c(F)cccc2Cl)c(CC(=O)O)c1 [LUMIRACOXIB] | > 20 | > 20
COc1ccc(NS(=O)(=O)c2ccc(N)cc2)nn1 [SULFAMETHOXYPYRIDAZINE] | > 20 | > 20
Oc1ccc2c3c1O[C@H]1[C@@H](O)C=C[C@H]4[C@@H](C2)NCC[C@@]341 [NORMORPHINE] | > 20 | > 20
CC(C)(CO)C(=O)SCCOP(=O)(NCc1ccccc1)OC[C@H]1O[C@@H](n2cnc3c(=O)[nH]c(N)nc32)[C@](C)(O)[C@@H]1O (stereo not given in full) | > 20 | > 20
CCN(CC)CCNC(=O)COc1ccc(OC)cc1 [MEFEXAMIDE] | > 20 | > 20
NS(=O)(=O)c1ccc(N2CCCCS2(=O)=O)cc1 | > 20 | > 20
CC[C@H]1OC(=O)[C@H](C)C(=O)[C@H](C)[C@@H](O[C@@H]2O[C@H](C)C[C@H](N(C)C)[C@H]2O)[C@](C)(OC)C[C@@H](C)C(=O)[C@H](C)[C@@H]2N(CCCCn3cnc(-c4cccnc4)c3)C(=O)O[C@@]21C | > 20 | > 20
CC[N+]1(C)CCCC(OC(=O)C(O)(c2ccccc2)c2ccccc2)C1 (stereo not given) [PIPENZOLATE] | > 20 | > 20
CN(C)CC#CC=C1c2ccccc2C=Cc2ccccc21 [INTRIPTYLINE] | > 20 | > 20
CN1CC[C@]23CCCC[C@H]2[C@H]1Cc1ccc(O)cc13 [LEVORPHANOL] | > 20 | > 20
OC[C@@H]1CCCN2CCCC[C@H]12 [LUPININE] | > 20 | > 20
CC[C@H](C)[C@H](N)C1=N[C@H](C(=O)N[C@@H](CC(C)C)C(=O)N[C@H](CCC(=O)O)C(=O)N[C@H](C(=O)N[C@H]2CCCCNC(=O)[C@H](CC(N)=O)NC(=O)[C@@H](CC(=O)O)NC(=O)[C@H](Cc3cnc[nH]3)NC(=O)[C@@H](Cc3ccccc3)NC(=O)[C@H]([C@@H](C)CC)NC(=O)[C@@H](CCCN)NC2=O)[C@@H](C)CC)CS1 [BACITRACIN] ({Ileψ(thiazoline)Cys}-L[dE]IK[dOrn]I[dF]H[dD]N; lactam 4-C) | > 20 | > 20
O=c1[nH]c2ccccc2n1CCN1CCN(c2cccc(C(F)(F)F)c2)CC1 [FLIBANSERIN] | > 20 | > 20
NC(=O)C1(N2CCCCC2)CCN(CCCC(=O)c2ccc(F)cc2)CC1 [PIPAMPERONE] | > 20 | > 20
O=C(CCCN1CCC(C(=O)c2ccc(F)cc2)CC1)c1ccc(F)cc1 [LENPERONE] | > 20 | > 20
COc1cc2c(cc1OC)C(=O)OC2 [METAMECONINE] | > 20 | > 20
CCCCNc1c(C(=O)OCC)c(C)nc2c1cnn2CC [TRACAZOLATE] | > 20 | > 20
CC(C(N)C(=O)NC(C(=O)O)C1OC(n2ccc(=O)[nH]c2=O)C(O)C1O)C(O)c1ccc(O)cn1 (stereo not given) | > 20 | > 20

SMILES | IC50 [µM] | IC50 (read-out: pIC50 (converted)) [µM]
Cc1cccn2c(=O)c(-c3nnn[nH]3)cnc12 [PEMIROLAST] | > 20 | > 20
CC(=O)OCC(=O)[C@@]12N=C(C)O[C@@H]1C[C@H]1[C@@H]3CCC4=CC(=O)C=C[C@]4(C)[C@H]3[C@@H](O)C[C@@]12C [DEFLAZACORT] | > 20 | > 20
C[C@H]1CN([C@H]2CC[C@](C#N)(c3ccc(F)cc3)CC2)CC[C@@]1(C(=O)O)c1ccccc1 | > 20 | > 20
[2H]C([2H])([2H])OCCCN1CCC(NC(=O)c2cc(Cl)c(N)c3c2OCC3)CC1 | > 20 | > 20
O=C(NOCC1CC1)c1ccc(F)c(F)c1Nc1ccc(I)cc1Cl [CI-1040] | > 20 | > 20
Nc1ncc([N+](=O)[O-])s1 | > 20 | > 20
Nc1c(CC(=O)O)cccc1C(=O)c1ccccc1 [AMFENAC] | > 20 | > 20
C[N+]1(C)CCN(CC(O)(c2ccccc2)C2CCCCC2)CC1 (stereo not given) [HEXOCYCLIUM] | > 20 | > 20
COc1ccc(C2CNC(=O)C2)cc1OCCCN1CCC(C(=O)c2ccc(F)cc2)CC1 (stereo not given) [LIDANSERIN] | > 20 | > 20
CN(C)CC[C@H](CSc1ccccc1)Nc1ccc(S(=O)(=O)NC(=O)c2ccc(N3CCN(Cc4ccccc4-c4ccc(Cl)cc4)CC3)cc2)cc1[N+](=O)[O-] [ABT 737] | > 20 | > 20
CC(=O)OC1CC2CCC1(C)C2(C)C (stereo not given) | > 20 | > 20
OCCN1CCCCC1C(c1ccccc1)c1ccccc1 (stereo not given) [DIFEMETOREX] | > 20 | > 20
CC(C)Cc1sc(N)nc1-c1ccc(P(=O)(O)O)o1 [MB-05032] | > 20 | > 20
O=C(/C=C/c1ccc(O)c(O)c1)c1ccc(O)cc1O [BUTEIN] | > 20 | > 20
C[C@@H]1O[C@@H](O[C@H]2[C@H](Oc3cc(O)c4c(c3)O[C@H](c3ccc(O)cc3)CC4=O)O[C@H](CO)[C@@H](O)[C@@H]2O)[C@H](O)[C@H](O)[C@H]1O [NARINGIN] | > 20 | > 20
C[C@]12CC[C@@H]3c4ccc(O)cc4C[C@@H](CCCCCCCCC[S+]([O-])CCCC(F)(F)C(F)(F)F)[C@H]3[C@@H]1CC[C@@H]2O (stereo not given in full) [FULVESTRANT] | > 20 | > 20
Cc1ccc([C@H]2O[C@H](CO)[C@@H](O)[C@H](O)[C@H]2O)cc1Cc1ccc(-c2ccc(F)cc2)s1 | > 20 | > 20
CCC(=O)OC(CC(=O)O)C[N+](C)(C)C (stereo not given) | > 20 | > 20
CC(C)NCC(O)c1ccccc1Cl (stereo not given) [CLORPRENALINE] | > 20 | > 20
N#CC1(c2ccc(NC(=O)c3cccnc3NCc3ccncc3)cc2)CCCC1 [RIVOCERANIB] | > 20 | > 20
